Data on 2 molecules can be found in patent publication US20040176446A1, “Substituted amino dicarboxylic acid derivatives” (priority 2001, published 2004).

SMILES strings stand for the structures.

In general, melting point refers to the temperature, or range, at which the solid turns liquid.

For `O=C(O)CCCCN(CCc1cc(-c2ccc(F)cc2F)ccc1OCc1ccc(C2CCCCC2)cc1)Cc1ccc(C(=O)O)cc1` [Example 1, 4-{[(4-Carboxybutyl)(2-{4-[(4-cyclohexylbenzyl)oxy]-2′,4′-difluoro-1,1′-biphenyl-3-yl}ethyl)amino]methyl}benzoic acid], the melting point was greater than 240 °C. Molecule `O=C(O)CCCCN(CCc1cc(-c2ccc(F)cc2F)ccc1OCc1ccc(-c2ccc(C(F)(F)F)cc2)cc1)Cc1ccc(C(=O)O)cc1` [Example 2, 4-({(4-Carboxybutyl)[2-(2′,4′-difluoro-4-{[4′-(trifluoromethyl)-1,1′-biphenyl-4-yl]methoxy}-1,1′-biphenyl-3-yl)ethyl]amino}methyl)benzoic acid] came in with a melting point greater than 240 °C.
